In PubChem BioAssay (NCI):
Where “and” joins values, the source holds several entries; their conditions need not be identical. Equal values may be shown once.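 Results reflect a 48-hour exposure of cells in 96-well plates to compound at five concentrations. GI50 is the concentration that inhibits growth by half. TGI is the concentration that stops growth completely.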

Legend:
Experiment in all cases: growth of human tumour cells (NCI), 48 h
OVCAR-8 ovarian = test system: OVCAR-8 ovarian
MOLT-4 leukemia = test system: MOLT-4 leukemia
SF-268 CNS = test system: SF-268 CNS
A549 NSCLC = test system: A549 NSCLC
TK-10 renal = test system: TK-10 renal
IGROV1 ovarian = test system: IGROV1 ovarian
CCRF-CEM leukemia = test system: CCRF-CEM leukemia
OVCAR-5 ovarian = test system: OVCAR-5 ovarian
SF-295 CNS = test system: SF-295 CNS
MCF7 breast = test system: MCF7 breast

| Compound | GI50 (OVCAR-8 ovarian) | TGI (OVCAR-8 ovarian) [µM] | GI50 (MOLT-4 leukemia) | TGI (MOLT-4 leukemia) [µM] | GI50 (SF-268 CNS) | TGI (SF-268 CNS) [µM] | GI50 (A549 NSCLC) | TGI (A549 NSCLC) [µM] | GI50 (TK-10 renal) | TGI (TK-10 renal) [µM] | GI50 (IGROV1 ovarian) | TGI (IGROV1 ovarian) [µM] | GI50 (CCRF-CEM leukemia) | TGI (CCRF-CEM leukemia) [µM] | GI50 (OVCAR-5 ovarian) | TGI (OVCAR-5 ovarian) [µM] | GI50 (SF-295 CNS) | TGI (SF-295 CNS) [µM] | GI50 (MCF7 breast) | TGI (MCF7 breast) [µM] |
| --- | --- | --- | --- | --- | --- | --- | --- | --- | --- | --- | --- | --- | --- | --- | --- | --- | --- | --- | --- | --- |
| Cc1ccc(Nc2nc(N)c(C(=O)c3ccc(C#N)cc3)s2)cc1 | 0.644 µM | > 100 | 0.468 µM | > 100 | 2.59 µM | > 95.9 | 0.739 µM | > 76.6 | 10.4 µM | > 78.8 | 1.2 µM | > 100 | 0.398 µM | > 100 | 2.98 µM | > 100 | 0.328 µM | 37.7 | 0.369 µM | > 100 |
| O=C(Nc1cccc(Cl)c1Cl)c1cccc(NC2=C(Cl)C(=O)N(Cc3ccccc3)C2=O)c1 | 9.47 µM | 42 | 3.11 µM | 9.07 | 27.7 µM | > 100 | 36.2 µM | > 100 | > 100 µM | > 100 | 11.7 µM | 59.6 | 14 µM | > 100 | 89.5 µM | > 100 | 35.7 µM | > 100 | 11.3 µM | > 100 |
| O=C1/C(=C\c2cccn2Cc2ccccc2)c2ccccc2N1c1c(Cl)cccc1Cl | > 100 µM | > 100 | > 100 µM | > 100 | > 100 µM | > 100 | 8.32 µM | > 100 | 0.978 µM | > 100 | 0.551 µM | > 100 | > 100 µM | > 100 | 4.37 µM | > 100 | > 100 µM | > 100 | 0.0898 µM | > 100 |
| CCOC(=O)C1=C(C)N(N)C(=S)NC1c1ccc(C)cc1 (centres undefined) | > 100 µM | > 100 | 45.7 µM | > 100 | 67 µM | > 100 | 94.6 µM | > 100 | 40.2 µM | > 100 | 28.2 µM | > 100 | 49.8 µM | > 100 | 15.7 µM | > 100 | 36.9 µM | > 100 | 16 µM | 73.6 |
| Cc1[nH][nH]c(=O)c1C=Nc1ccc(-c2nc3ccccc3[nH]2)cc1 | 20.7 µM | 54.6 | 52 µM | > 100 | 14.4 µM | 51.1 | 42.9 µM | > 100 | > 100 µM | > 100 | 24.6 µM | > 100 | 0.066 µM | > 100 | 46 µM | > 100 | 18.4 µM | 42.3 |  | 0.612 |
| COC(COC(=O)N1CCN(C=O)CC1)C1=C(N2CC2)C(=O)C(C)=C(N2CC2)C1=O (centres undefined) |  | 1.36 |  | 14.1 |  | 6.45 |  | 2.71 |  | 2.09 |  | 1.38 |  | 4.77 |  | 8.64 |  | 4.55 |  | 1.07 |
| Cc1c[n+](Cc2ccc3ccccc3c2)cn1Cc1ccc2ccccc2c1 | 1.89 µM | 4.01 | 1.7 µM | 4.06 | 1.36 µM | 2.88 | 5.05 µM | 18.7 | 1.82 µM | 3.73 | 1.46 µM | 3.75 | 2.45 µM | 5.71 | 1.81 µM | 3.95 | 1.95 µM | 5.56 | 1.67 µM | 3.5 |
| O=C(Nc1cccc(Cl)c1)c1cc2ccccc2cc1O | 2.94 µM and 3.39 µM | > 100 | 4.07 µM and 4.04 µM | > 100 | 2.58 µM and 2.57 µM | > 100 | 3.63 µM and 3.31 µM | > 100 | 5.58 µM and 5.82 µM | > 100 | 2.71 µM and 2.06 µM | > 100 | 5.58 µM and 8.61 µM | > 100 | 6.59 µM and 1.98 µM | > 100 | 4.11 µM and 13.1 µM | > 100 | 2.66 µM and 2.12 µM | > 100 |
| N#CC1(C2SCCS2=O)C2=C(C(=O)c3ccccc3C2=O)N2CCCC21 (centres undefined) |  | 7.83 |  | 19.7 |  | 11.2 |  | 6.26 |  | 43.7 |  | 5.76 |  | 24.5 |  | 9.39 |  | 7.82 |  | 3.73 |
| COc1ccc(/C=c2/sc3n(c2=O)C(c2ccc(OC)c(OC)c2)C2=C(N=3)c3cc(F)ccc3OC2)cc1 (centres undefined) | 40.2 µM | > 100 | > 22.7 µM | > 100 | 15.5 µM | > 100 | 23.6 µM | > 82 | 29 µM | > 87.6 | 9.71 µM | > 26.5 | > 55.7 µM | > 100 | 52.8 µM | > 100 | 15.7 µM | 54.1 | 23.6 µM | > 100 |
